In ChEMBL document CHEMBL1201862, “PubChem BioAssay data set” (2004):
The source made the active and inactive calls.

Legend:
[1] = target: T1, Short transient receptor potential channel 4 (Mus musculus, UniProt Q9QUQ5); experiment: TRPC4 inhibition under acetylcholine activation, SAR follow-up, cell-based, acetylcholine stimulus, HEK293 TRPC4, Fluo-4 (AID 492996); format: functional
T1 sequence (Q9QUQ5 whole entry): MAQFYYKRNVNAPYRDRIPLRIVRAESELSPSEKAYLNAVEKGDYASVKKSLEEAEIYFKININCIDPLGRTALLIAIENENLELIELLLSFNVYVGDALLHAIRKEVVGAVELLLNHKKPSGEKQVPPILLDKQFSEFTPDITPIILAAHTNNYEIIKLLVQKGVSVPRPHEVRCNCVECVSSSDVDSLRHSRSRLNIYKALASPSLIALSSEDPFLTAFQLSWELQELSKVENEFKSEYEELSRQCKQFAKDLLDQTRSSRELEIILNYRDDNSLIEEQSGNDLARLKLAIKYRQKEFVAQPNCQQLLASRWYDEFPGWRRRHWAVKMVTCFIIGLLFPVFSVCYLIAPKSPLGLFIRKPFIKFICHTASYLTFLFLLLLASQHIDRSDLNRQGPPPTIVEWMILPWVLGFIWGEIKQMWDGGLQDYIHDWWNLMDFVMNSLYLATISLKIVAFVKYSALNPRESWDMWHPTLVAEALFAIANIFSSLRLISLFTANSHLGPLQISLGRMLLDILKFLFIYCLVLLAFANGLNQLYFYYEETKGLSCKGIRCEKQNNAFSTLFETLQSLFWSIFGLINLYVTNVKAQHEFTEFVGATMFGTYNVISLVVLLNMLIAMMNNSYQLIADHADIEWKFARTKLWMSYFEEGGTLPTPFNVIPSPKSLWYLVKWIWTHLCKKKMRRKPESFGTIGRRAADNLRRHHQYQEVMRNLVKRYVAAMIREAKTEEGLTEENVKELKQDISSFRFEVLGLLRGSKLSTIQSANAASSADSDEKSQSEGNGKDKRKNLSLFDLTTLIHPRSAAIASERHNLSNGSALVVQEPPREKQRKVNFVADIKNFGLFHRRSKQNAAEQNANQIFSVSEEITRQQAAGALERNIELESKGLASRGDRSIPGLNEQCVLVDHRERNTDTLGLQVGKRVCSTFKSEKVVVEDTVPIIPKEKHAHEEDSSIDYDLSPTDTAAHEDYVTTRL

[2] = inhibitors of cytokine-induced nitrite release, dose response, cell-based, Griess absorbance, INS-1E, dry powder, set 3 (AID 488870); format: functional; conditions: Rattus norvegicus
INS1 [3] = experiment: protection of INS-1E cells from cytokine death, dose response, ATP luminescence, dry powder (AID 488844); format: functional, cell-based; conditions: Rattus norvegicus
INS1 [4] = experiment: protection from cytokine-driven beta-cell apoptosis, dose response, JC-1 fluorescence, INS-1E, dry powder, set 2 (AID 488867); format: functional, cell-based; conditions: Rattus norvegicus
MDCK [5] = experiment: antiviral activity against H1N1 influenza, dose response, cell-based, strain KY180 (AID 540254); format: functional; conditions: Canis lupus familiaris
MDCK [6] = experiment: MDCK cell cytotoxicity, dose response, cytotoxicity control (AID 540296); format: functional; conditions: Canis lupus familiaris
MDCK [7] = experiment: antiviral activity against H1N1 influenza, dose response, cell-based, strain KY136 (AID 540257); format: functional; conditions: Canis lupus familiaris
Vero = experiment: Vero E6 cell cytotoxicity, dose response, cytotoxicity control (AID 540298); format: functional; conditions: Chlorocebus sabaeus
[8] = target: Serine/threonine-protein phosphatase (Candida dubliniensis (strain CD36 / CBS 7987 / NCPF 3949 / NRRLY-17841) (Yeast), UniProt B9W6M3); experiment: calcineurin pathway inhibitors in yeast reporter, dose response, S. cerevisiae, CDRE-lacZ, luminescence, secondary (AID 2388); format: functional, cell-based;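 further: yeast reporter cells carrying a calcineurin-responsive lacZ construct stimulated with calcium chloride; luminescent beta-galactosidase reporter signal in whole cells rather than isolated phosphatase activity; potency for inhibition where a drop in reporter signal means calcineurin blockade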
[9] = HepG2 cell cytotoxicity, dose response, cytotoxicity control for non-replicating M. tuberculosis project (AID 489018); format: functional; conditions: Mycobacterium tuberculosis
[10] = NIH-3T3 fibroblast cytotoxicity, dose response, cytotoxicity control, cell-based, fluorescence, Alamar Blue, secondary assay (AID 2327); format: functional;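 further: NIH-3T3 mouse fibroblasts cultured with fluconazole at 8 µg/mL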
cells = format: functional
[11] = THP-1 cell cytotoxicity, dose response, cytotoxicity control for non-replicating M. tuberculosis project (AID 489025); format: functional
[12] = Vero E6 cell cytotoxicity, dose response, cytotoxicity control for non-replicating M. tuberculosis project, secondary assay (AID 492998); format: functional, VeroE6; conditions: Vero C1008
[13] = C. albicans growth with fluconazole, confirmation, fluorescence, retest (AID 2467); format: functional, cell-based
[14] = target: ATP-dependent molecular chaperone HSP82 (Candida albicans (strain WO-1) (Yeast), UniProt C4YTQ8); experiment: loss of DOC-induced GRE-beta-galactosidase reporter signal, dose response, Hsp90 inhibitor project, S. cerevisiae, luminescence (AID 2400); format: functional, cell-based;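 further: beta-galactosidase luminescence from glucocorticoid response element reporter as proxy for Hsp90 function; inhibitor potency where signal loss means Hsp90 inhibition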
[15] = target: Nuclear receptor subfamily 0 group B member 1 (Homo sapiens, UniProt P51843); experiment: Luminescence-based cell-based high throughput dose response assay for inhibitors of the orphan nuclear receptor subfamily 0, group B, member 1 (DAX1; NR0B1). [Related pubchem assays (depositor defined):AID504766, AID504790]; format: functional
HEK293 = experiment: cells; format: functional, cell-based; conditions: Homo sapiens

ATP-dependent molecular chaperone HSP82, sequence (C4YTQ8 whole entry): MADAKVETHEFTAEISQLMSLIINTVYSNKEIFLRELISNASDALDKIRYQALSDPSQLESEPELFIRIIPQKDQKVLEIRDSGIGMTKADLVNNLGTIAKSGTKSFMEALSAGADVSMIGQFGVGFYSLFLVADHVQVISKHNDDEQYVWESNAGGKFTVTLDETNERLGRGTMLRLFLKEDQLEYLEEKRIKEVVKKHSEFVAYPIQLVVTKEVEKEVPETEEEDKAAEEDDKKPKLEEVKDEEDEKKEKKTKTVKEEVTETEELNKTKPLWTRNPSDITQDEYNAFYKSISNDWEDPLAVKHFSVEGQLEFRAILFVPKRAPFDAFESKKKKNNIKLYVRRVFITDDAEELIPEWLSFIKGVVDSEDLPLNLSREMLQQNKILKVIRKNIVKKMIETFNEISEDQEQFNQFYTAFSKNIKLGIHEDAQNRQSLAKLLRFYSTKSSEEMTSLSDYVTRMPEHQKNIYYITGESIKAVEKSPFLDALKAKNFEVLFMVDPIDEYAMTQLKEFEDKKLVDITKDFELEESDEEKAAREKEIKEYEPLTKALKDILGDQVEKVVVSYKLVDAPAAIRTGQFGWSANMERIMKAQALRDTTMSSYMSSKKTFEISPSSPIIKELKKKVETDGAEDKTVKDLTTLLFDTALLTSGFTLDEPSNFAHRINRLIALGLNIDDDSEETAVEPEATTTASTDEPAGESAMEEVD
Serine/threonine-protein phosphatase, sequence (B9W6M3 whole entry): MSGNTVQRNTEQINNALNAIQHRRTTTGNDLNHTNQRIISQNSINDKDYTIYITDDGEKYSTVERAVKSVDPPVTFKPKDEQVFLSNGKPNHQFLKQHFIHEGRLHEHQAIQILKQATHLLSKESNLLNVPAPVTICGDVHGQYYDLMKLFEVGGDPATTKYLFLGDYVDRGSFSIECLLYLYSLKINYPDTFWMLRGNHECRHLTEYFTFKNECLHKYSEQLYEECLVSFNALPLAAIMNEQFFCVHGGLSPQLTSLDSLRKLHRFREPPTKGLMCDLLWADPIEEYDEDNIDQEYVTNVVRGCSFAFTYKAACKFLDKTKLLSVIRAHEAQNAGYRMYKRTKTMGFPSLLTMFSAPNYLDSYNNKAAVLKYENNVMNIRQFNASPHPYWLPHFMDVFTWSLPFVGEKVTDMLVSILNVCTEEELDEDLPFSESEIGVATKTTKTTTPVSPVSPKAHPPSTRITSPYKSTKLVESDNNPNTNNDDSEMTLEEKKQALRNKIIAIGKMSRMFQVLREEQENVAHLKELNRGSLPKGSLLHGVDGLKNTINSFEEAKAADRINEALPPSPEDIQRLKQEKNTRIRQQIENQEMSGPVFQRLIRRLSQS
Nuclear receptor subfamily 0 group B member 1, sequence (P51843 whole entry): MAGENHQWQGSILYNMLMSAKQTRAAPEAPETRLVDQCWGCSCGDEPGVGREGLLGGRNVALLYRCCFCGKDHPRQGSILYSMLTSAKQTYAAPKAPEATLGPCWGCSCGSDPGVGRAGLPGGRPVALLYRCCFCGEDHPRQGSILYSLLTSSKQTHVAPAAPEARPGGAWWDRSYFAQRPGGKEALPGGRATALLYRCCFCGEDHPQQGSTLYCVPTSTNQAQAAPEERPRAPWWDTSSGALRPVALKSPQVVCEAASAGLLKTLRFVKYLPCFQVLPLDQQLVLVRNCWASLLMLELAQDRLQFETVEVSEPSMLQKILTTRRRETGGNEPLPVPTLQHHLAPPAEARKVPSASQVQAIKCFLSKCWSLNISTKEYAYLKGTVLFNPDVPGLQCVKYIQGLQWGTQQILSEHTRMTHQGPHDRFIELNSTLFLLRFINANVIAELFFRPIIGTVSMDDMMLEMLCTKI

**Q.** Which IC50 [1] does the source give for Cc1cc(N2CCN(C)CC2)nc2ccccc12 here?
**A.** 31.7 µM (active)

**Q.** With Cc1ccc(S(=O)(=O)N(C)C[C@@H]2Oc3c(NC(=O)Nc4ccc(F)cc4)cccc3C(=O)N([C@H](C)CO)C[C@H]2C)cc1 as the molecule, how does the AC50 [2] read?
**A.** 63.4 µM (active)

**Q.** What about the AC50 (INS1 [3]) of the same molecule?
**A.** 73.9 µM (active)

**Q.** And the AC50 (INS1 [4])?
**A.** 106 µM (active)

**Q.** Which IC50 (MDCK [5]) does the source give for Cc1nnc(NC(=O)CSc2nccn2-c2cccc(C)c2C)s1 here?
**A.** 10.4 µM (active)

**Q.** And the CC50 (MDCK [6])?
**A.** > 40 µM (active)

**Q.** And the IC50 (MDCK [7])?
**A.** 5.1 µM (active)

**Q.** And the CC50 (Vero)?
**A.** > 40 µM (active)

**Q.** Which EC50 [8] does the source give for Cc1ccc(C)c(-c2nnc(NC(=O)c3ccco3)o2)c1 here?
**A.** > 180 µM (inactive)

**Q.** What about the CC50 [9] of the same molecule?
**A.** > 20 µM (active)

**Q.** What about the EC50 [10] of the same molecule?
**A.** > 160 µM (inactive)

**Q.** What about the IC50 (cells) of the same molecule?
**A.** 2.58 µM (active)

**Q.** And the CC50 [11]?
**A.** > 40 µM (active)

**Q.** What about the CC50 [12] of the same molecule?
**A.** 15.8 µM (active)

**Q.** What about the EC50 [13] of the same molecule?
**A.** 0.695 µM (active)

**Q.** What about the EC50 [14] of the same molecule?
**A.** > 160 µM (inactive)

**Q.** Which results are given for Nn1c(SCc2c(F)cccc2F)nnc1-c1ccccn1?
**A.** IC50 [15]: > 67.6 µM (inactive); IC50 (HEK293): > 67.6 µM (inactive)
